Data: patent US11000033B2, “Ketone or oxime compound, and herbicide” (NISSAN CHEMICAL CORPORATION, priority 2014, dated 2021)

Tests used:
Type in all cases: in vivo
[1] = test system: Lolium multiflorum Lam.; assay: Test Example 5: herbicidal effect by foliage application, plastic box (symbol K); settings: 320 g/ha, 3 weeks after application
Method in brief: (§1)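 Greenhouse foliar test: seedlings at 14 days, grown 25° C. to 30° C. in sterilized diluvial soil; compound applied as an aqueous dilution of an emulsion; response read 3 weeks after spraying.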

[2] = test system: Echinochloa oryzacola Vasing.; assay: Test Example 2: herbicidal activity, application during weed generation in submerged conditions (symbol A); settings: Table 23; application herbicide amount 320 g/ha; grade 0-5 by criteria of Test Example 1
Method in brief: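 Steps: fill pots with alluvial soil; add water to 4 cm depth; co-sow the three weeds; grow at 25° C. to 30° C. under glass; at 1–2 leaves, dose the floodwater with diluted emulsion; rate damage visually after 3 weeks.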

[3] = test system: Cyperus difformis; assay: Test Example 3: herbicidal effect by foliage application, Wagner pot (symbol E); settings: application herbicide amount 320 g/ha
Method in brief: (§2)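 Post-emergence, paddy-type test: seedlings 14 d old in shallow-flooded (0.1–0.5 cm) alluvial soil, 25–30 °C greenhouse. Emulsion diluted to target rate, sprayed on leaves. Read-out: visual effect on each species at 3 weeks, per set criteria.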

[4] = test system: Abutilon theophrasti; assay: Test Example 4: herbicidal effect by soil treatment (symbol M); settings: application herbicide amount 320 g/ha
Method in brief: (§3)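 Seeds were sown in sterilized diluvial soil, covered with about 1.5 cm of soil, and the soil surface was sprayed with a water-diluted emulsion of the compound at a predetermined rate. Plants grew in a greenhouse at 25° C. to 30° C.; effects were scored visually 3 weeks after application.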

[5] = test system: Digitaria ciliaris; assay: Test Example 4: herbicidal effect by soil treatment (symbol F); settings: application herbicide amount 320 g/ha
Method in brief: as §3

[6] = test system: Galium spurium; assay: Test Example 5: herbicidal effect by foliage application, plastic box (symbol Q); settings: 320 g/ha, 3 weeks after application
Method in brief: as §1

[7] = test system: soybean; assay: Test Example 4: effect on crop by soil treatment (symbol d); settings: application herbicide amount 320 g/ha
Method in brief: (§4)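 Soil-treatment setup: crop and weed seeds were spot-sown into sterilized diluvial soil, then buried beneath approximately 1.5 cm of it, and the boxes were housed in a 25–30° C. greenhouse.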

[8] = test system: corn; assay: Test Example 4: effect on crop by soil treatment (symbol c); settings: application herbicide amount 320 g/ha
Method in brief: as §4

[9] = test system: Monochoria vaginalis; assay: Test Example 1: herbicidal activity, application before weed generation in submerged conditions (symbol C); settings: application herbicide amount 320 g/ha
Method in brief: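 Application before weed emergence: an aqueous dilution of the emulsion formulation was poured onto the surface of 4 cm-deep floodwater on the day of sowing. Effect was judged after 3 weeks (greenhouse, 25–30 °C).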

[10] = test system: Leptochloa chinensis; assay: Test Example 3: herbicidal effect by foliage application, Wagner pot (symbol D); settings: application herbicide amount 320 g/ha
Method in brief: as §2

[11] = test system: beet; assay: Test Example 4: effect on crop by soil treatment (symbol f); settings: application herbicide amount 320 g/ha
Method in brief: as §4

[12] = test system: Amaranthus retroflexus; assay: Test Example 4: herbicidal effect by soil treatment (symbol N); settings: application herbicide amount 320 g/ha
Method in brief: as §3

Row | Structure (SMILES) | K: Lolium multiflorum Lam., herbicidal effect grade [1] | Herbicidal effect grade, A: Echinochloa oryzacola Vasing. [2] | herbicidal effect on E, grade 0-5 [3] | M (Abutilon theophrasti) herbicidal effect grade [4] | F (Digitaria ciliaris) herbicidal effect grade [5] | Q: Galium spurium, herbicidal effect grade [6] | d (soybean) effect on crop grade [7] | c (corn) effect on crop grade [8] | Herbicidal effect grade, C: Monochoria vaginalis [9] | herbicidal effect on D (Leptochloa chinensis), grade 0-5 [10] | f (beet) effect on crop grade [11] | N (Amaranthus retroflexus) herbicidal effect grade [12]
1 | CSCCON=C(C)CC1CC(O)=C(c2c(C)cc(C)cc2C)C1=O (stereo not drawn) [1-029] | 5 (Herbicidal ratio of 90% or more (almost completely withered)) | 4 (Herbicidal ratio of 70% or higher and lower than 90%) | 4 (Herbicidal ratio of 70% or higher and lower than 90%) | 0 (Herbicidal ratio of 5% or lower (almost no effect)) | 5 (Herbicidal ratio of 90% or more (almost completely withered)) | 3 (Herbicidal ratio of 40% or higher and lower than 70%) | 0 (Herbicidal ratio of 5% or lower (almost no effect)) | 0 (Herbicidal ratio of 5% or lower (almost no effect)) | 0 (Herbicidal ratio of 5% or lower (almost no effect)) | 5 (Herbicidal ratio of 90% or more (almost completely withered)) | 0 (Herbicidal ratio of 5% or lower (almost no effect)) | 0 (Herbicidal ratio of 5% or lower (almost no effect))
2 | CON=C(C)CC1CC(OCC#C[Si](C)(C)C)=C(c2c(C)cc(C)cc2C)C1=O (stereo not drawn) [1-031] | 4 (Herbicidal ratio of 70% or higher and lower than 90%) | 5 (Herbicidal ratio of 90% or more (almost completely withered)) | 0 (Herbicidal ratio of 5% or lower (almost no effect)) | 0 (Herbicidal ratio of 5% or lower (almost no effect)) | 0 (Herbicidal ratio of 5% or lower (almost no effect)) | 0 (Herbicidal ratio of 5% or lower (almost no effect)) | 0 (Herbicidal ratio of 5% or lower (almost no effect)) | 0 (Herbicidal ratio of 5% or lower (almost no effect)) | 2 (Herbicidal ratio of 20% or higher and lower than 40%) | 4 (Herbicidal ratio of 70% or higher and lower than 90%) | 0 (Herbicidal ratio of 5% or lower (almost no effect)) | 0 (Herbicidal ratio of 5% or lower (almost no effect))
3 | CON=C(C)C(C)C1CC(O)=C(c2c(C)cc(C)cc2C)C1=O (stereo not drawn) [1-032] | 5 (Herbicidal ratio of 90% or more (almost completely withered)) | 5 (Herbicidal ratio of 90% or more (almost completely withered)) | 5 (Herbicidal ratio of 90% or more (almost completely withered)) | 4 (Herbicidal ratio of 70% or higher and lower than 90%) | 5 (Herbicidal ratio of 90% or more (almost completely withered)) | 4 (Herbicidal ratio of 70% or higher and lower than 90%) | 0 (Herbicidal ratio of 5% or lower (almost no effect)) | 4 (Herbicidal ratio of 70% or higher and lower than 90%) | 3 (Herbicidal ratio of 40% or higher and lower than 70%) | 5 (Herbicidal ratio of 90% or more (almost completely withered)) | 4 (Herbicidal ratio of 70% or higher and lower than 90%) | 4 (Herbicidal ratio of 70% or higher and lower than 90%)
4 | CCCCCCCCC(=O)OC1=C(c2c(C)cc(C)cc2C)C(=O)C(CC(C)=NOC)C1 (stereo not drawn) [1-033] | 5 (Herbicidal ratio of 90% or more (almost completely withered)) | 5 (Herbicidal ratio of 90% or more (almost completely withered)) | 5 (Herbicidal ratio of 90% or more (almost completely withered)) | 5 (Herbicidal ratio of 90% or more (almost completely withered)) | 5 (Herbicidal ratio of 90% or more (almost completely withered)) | 1 (Herbicidal ratio of 5% or higher and lower than 20%) | 0 (Herbicidal ratio of 5% or lower (almost no effect)) | 4 (Herbicidal ratio of 70% or higher and lower than 90%) | 1 (Herbicidal ratio of 5% or higher and lower than 20%) | 5 (Herbicidal ratio of 90% or more (almost completely withered)) | 1 (Herbicidal ratio of 5% or higher and lower than 20%) | 5 (Herbicidal ratio of 90% or more (almost completely withered))
5 | CON=C(C)CC1CC(OC(=O)C2(C)CC2(Cl)Cl)=C(c2c(C)cc(C)cc2C)C1=O (stereo not drawn) [1-036] | 5 (Herbicidal ratio of 90% or more (almost completely withered)) | 5 (Herbicidal ratio of 90% or more (almost completely withered)) | 5 (Herbicidal ratio of 90% or more (almost completely withered)) | 5 (Herbicidal ratio of 90% or more (almost completely withered)) | 5 (Herbicidal ratio of 90% or more (almost completely withered)) | 0 (Herbicidal ratio of 5% or lower (almost no effect)) | 0 (Herbicidal ratio of 5% or lower (almost no effect)) | 3 (Herbicidal ratio of 40% or higher and lower than 70%) | 1 (Herbicidal ratio of 5% or higher and lower than 20%) | 5 (Herbicidal ratio of 90% or more (almost completely withered)) | 3 (Herbicidal ratio of 40% or higher and lower than 70%) | 5 (Herbicidal ratio of 90% or more (almost completely withered))
6 | COCCOC1=C(c2c(C)cc(C)cc2C)C(=O)C(CC(C)=NOC)C1 (stereo not drawn) [1-037] | 0 (Herbicidal ratio of 5% or lower (almost no effect)) | 0 (Herbicidal ratio of 5% or lower (almost no effect)) | 0 (Herbicidal ratio of 5% or lower (almost no effect)) | 0 (Herbicidal ratio of 5% or lower (almost no effect)) | 0 (Herbicidal ratio of 5% or lower (almost no effect)) | 0 (Herbicidal ratio of 5% or lower (almost no effect)) | 0 (Herbicidal ratio of 5% or lower (almost no effect)) | 0 (Herbicidal ratio of 5% or lower (almost no effect)) | 0 (Herbicidal ratio of 5% or lower (almost no effect)) | 0 (Herbicidal ratio of 5% or lower (almost no effect)) | 0 (Herbicidal ratio of 5% or lower (almost no effect)) | 0 (Herbicidal ratio of 5% or lower (almost no effect))
7 | CCC(CC1CC(O)=C(c2c(C)cc(C)cc2C)C1=O)=NOC (stereo not drawn) [1-038] | 5 (Herbicidal ratio of 90% or more (almost completely withered)) | 5 (Herbicidal ratio of 90% or more (almost completely withered)) | 5 (Herbicidal ratio of 90% or more (almost completely withered)) | 4 (Herbicidal ratio of 70% or higher and lower than 90%) | 5 (Herbicidal ratio of 90% or more (almost completely withered)) | 0 (Herbicidal ratio of 5% or lower (almost no effect)) | 1 (Herbicidal ratio of 5% or higher and lower than 20%) | 3 (Herbicidal ratio of 40% or higher and lower than 70%) | 3 (Herbicidal ratio of 40% or higher and lower than 70%) | 5 (Herbicidal ratio of 90% or more (almost completely withered)) | 0 (Herbicidal ratio of 5% or lower (almost no effect)) | 3 (Herbicidal ratio of 40% or higher and lower than 70%)
